Test results from ChEMBL document CHEMBL3867490, “Chalcone-benzoxaborole hybrids as novel anticancer agents” (Bioorg Med Chem Lett, 2016).

Assay: Cytotoxicity against human MCF10A cells assessed as reduction in cell viability after 48 hrs by MTT assay
Assay type: toxicity, cell-based, MCF-10A
Conditions: not given

Row | Structure (SMILES) | IC50 at 48 h
1 | O=C(/C=C/c1ccc2c(c1)B(O)OC2)c1cccc(F)c1 | 15.8 µM
2 | Cc1cccc(C(=O)/C=C/c2ccc3c(c2)B(O)OC3)c1 | 15.9 µM
3 | Cc1ccc(C(=O)/C=C/c2ccc3c(c2)B(O)OC3)cc1C | 4.7 µM
4 | O=C(/C=C/c1ccc2c(c1)B(O)OC2)c1ccc(Cl)c(Cl)c1 | 14.9 µM
5 | O=C(/C=C/c1ccc2c(c1)B(O)OC2)c1ccc(O)c(O)c1 | > 100 µM
6 | COc1ccccc1C(=O)/C=C/c1ccc2c(c1)B(O)OC2 | 9.1 µM
7 | COc1cccc(C(=O)/C=C/c2ccc3c(c2)B(O)OC3)c1 | 7.4 µM
8 | COCOc1ccccc1C(=O)/C=C/c1ccc2c(c1)B(O)OC2 | 11.7 µM
9 | COCOc1cccc(C(=O)/C=C/c2ccc3c(c2)B(O)OC3)c1 | 48.1 µM
10 | Nc1cccc(C(=O)/C=C/c2ccc3c(c2)B(O)OC3)c1 | 19.6 µM
11 | O=C(/C=C/c1ccc2c(c1)B(O)OC2)c1ccccc1O | 53.7 µM
12 | O=C(/C=C/c1ccc2c(c1)B(O)OC2)c1cccc(O)c1 | 25.3 µM
13 | COc1ccc(C(=O)/C=C/c2ccc3c(c2)B(O)OC3)cc1OC | 13.5 µM
14 | COc1ccc(C(=O)/C=C/c2ccc3c(c2)B(O)OC3)c(OC)c1 | 12.2 µM
15 | COc1cc(C(=O)/C=C/c2ccc3c(c2)B(O)OC3)cc(OC)c1OC | 48.5 µM
16 | O=C(/C=C/c1ccc2c(c1)B(O)OC2)c1ccc2c(c1)OCCO2 | 11.7 µM
17 | COc1cc(C(=O)/C=C/c2ccc3c(c2)B(O)OC3)ccc1[N+](=O)[O-] | 3.6 µM
18 | COc1cc(C(=O)/C=C/c2ccc3c(c2)B(O)OC3)ccc1N | 17.6 µM
19 | O=C(O)c1ccc(C(=O)/C=C/c2ccc3c(c2)B(O)OC3)cc1 | > 100 µM
20 | O=C(/C=C/c1ccc2c(c1)B(O)OC2)c1cccnc1 | 34.4 µM
21 | COc1cccc2c1C(=O)c1c(O)c3c(c(O)c1C2=O)C[C@@](O)(C(=O)CO)C[C@@H]3O[C@H]1C[C@H](N)[C@H](O)[C@H](C)O1 [DOXORUBICIN] | 0.06 µM

Assay: Cytotoxicity against human WI38 cells assessed as reduction in cell viability after 48 hrs by MTT assay
Assay type: toxicity, cell-based, WI-38
Conditions: not given

Row | Structure (SMILES) | IC50 at 48 h
22 | O=C(/C=C/c1ccc2c(c1)B(O)OC2)c1cccc(F)c1 | 26.7 µM
23 | Cc1cccc(C(=O)/C=C/c2ccc3c(c2)B(O)OC3)c1 | 16.7 µM
24 | Cc1ccc(C(=O)/C=C/c2ccc3c(c2)B(O)OC3)cc1C | 22 µM
25 | O=C(/C=C/c1ccc2c(c1)B(O)OC2)c1ccc(Cl)c(Cl)c1 | 12.5 µM
26 | O=C(/C=C/c1ccc2c(c1)B(O)OC2)c1ccc(O)c(O)c1 | > 100 µM
27 | COc1ccccc1C(=O)/C=C/c1ccc2c(c1)B(O)OC2 | 21.7 µM
28 | COc1cccc(C(=O)/C=C/c2ccc3c(c2)B(O)OC3)c1 | 14.6 µM
29 | COCOc1ccccc1C(=O)/C=C/c1ccc2c(c1)B(O)OC2 | 27 µM
30 | COCOc1cccc(C(=O)/C=C/c2ccc3c(c2)B(O)OC3)c1 | 33.2 µM
31 | Nc1cccc(C(=O)/C=C/c2ccc3c(c2)B(O)OC3)c1 | 25.3 µM
32 | O=C(/C=C/c1ccc2c(c1)B(O)OC2)c1ccccc1O | > 100 µM
33 | O=C(/C=C/c1ccc2c(c1)B(O)OC2)c1cccc(O)c1 | 26.4 µM
34 | COc1ccc(C(=O)/C=C/c2ccc3c(c2)B(O)OC3)cc1OC | 33.5 µM
35 | COc1ccc(C(=O)/C=C/c2ccc3c(c2)B(O)OC3)c(OC)c1 | 86.3 µM
36 | COc1cc(C(=O)/C=C/c2ccc3c(c2)B(O)OC3)cc(OC)c1OC | 18.5 µM
37 | O=C(/C=C/c1ccc2c(c1)B(O)OC2)c1ccc2c(c1)OCCO2 | 30.2 µM
38 | COc1cc(C(=O)/C=C/c2ccc3c(c2)B(O)OC3)ccc1[N+](=O)[O-] | 26 µM
39 | COc1cc(C(=O)/C=C/c2ccc3c(c2)B(O)OC3)ccc1N | > 100 µM
40 | O=C(O)c1ccc(C(=O)/C=C/c2ccc3c(c2)B(O)OC3)cc1 | > 100 µM
41 | O=C(/C=C/c1ccc2c(c1)B(O)OC2)c1cccnc1 | 76.2 µM
42 | COc1cccc2c1C(=O)c1c(O)c3c(c(O)c1C2=O)C[C@@](O)(C(=O)CO)C[C@@H]3O[C@H]1C[C@H](N)[C@H](O)[C@H](C)O1 [DOXORUBICIN] | 9 µM

Assay: Cytotoxicity against human SKOV3 cells assessed as reduction in cell viability after 48 hrs by MTT assay
Assay type: functional, cell-based
Conditions: SK-OV-3, 48 h

Row | Structure (SMILES) | IC50
43 | O=C(/C=C/c1ccc2c(c1)B(O)OC2)c1cccc(F)c1 | 4.8 µM
44 | Cc1cccc(C(=O)/C=C/c2ccc3c(c2)B(O)OC3)c1 | 2.9 µM
45 | Cc1ccc(C(=O)/C=C/c2ccc3c(c2)B(O)OC3)cc1C | 1.9 µM
46 | O=C(/C=C/c1ccc2c(c1)B(O)OC2)c1ccc(Cl)c(Cl)c1 | 1.8 µM
47 | O=C(/C=C/c1ccc2c(c1)B(O)OC2)c1ccc(O)c(O)c1 | > 100 µM
48 | COc1ccccc1C(=O)/C=C/c1ccc2c(c1)B(O)OC2 | 2.6 µM
49 | COc1cccc(C(=O)/C=C/c2ccc3c(c2)B(O)OC3)c1 | 2.6 µM
50 | COCOc1ccccc1C(=O)/C=C/c1ccc2c(c1)B(O)OC2 | 6.5 µM
51 | COCOc1cccc(C(=O)/C=C/c2ccc3c(c2)B(O)OC3)c1 | 11.7 µM
52 | Nc1cccc(C(=O)/C=C/c2ccc3c(c2)B(O)OC3)c1 | 7.4 µM
53 | O=C(/C=C/c1ccc2c(c1)B(O)OC2)c1ccccc1O | 48.8 µM
54 | O=C(/C=C/c1ccc2c(c1)B(O)OC2)c1cccc(O)c1 | 3.8 µM
55 | COc1ccc(C(=O)/C=C/c2ccc3c(c2)B(O)OC3)cc1OC | 4.8 µM
56 | COc1ccc(C(=O)/C=C/c2ccc3c(c2)B(O)OC3)c(OC)c1 | 6.1 µM
57 | COc1cc(C(=O)/C=C/c2ccc3c(c2)B(O)OC3)cc(OC)c1OC | 5.7 µM
58 | O=C(/C=C/c1ccc2c(c1)B(O)OC2)c1ccc2c(c1)OCCO2 | 7.3 µM
59 | COc1cc(C(=O)/C=C/c2ccc3c(c2)B(O)OC3)ccc1[N+](=O)[O-] | 1.7 µM
60 | COc1cc(C(=O)/C=C/c2ccc3c(c2)B(O)OC3)ccc1N | 1.7 µM
61 | O=C(O)c1ccc(C(=O)/C=C/c2ccc3c(c2)B(O)OC3)cc1 | > 100 µM
62 | O=C(/C=C/c1ccc2c(c1)B(O)OC2)c1cccnc1 | 18.5 µM
63 | COc1cccc2c1C(=O)c1c(O)c3c(c(O)c1C2=O)C[C@@](O)(C(=O)CO)C[C@@H]3O[C@H]1C[C@H](N)[C@H](O)[C@H](C)O1 [DOXORUBICIN] | 0.42 µM

Assay: Cytotoxicity against human HCT116 cells assessed as reduction in cell viability after 48 hrs by MTT assay
Assay type: functional, cell-based
Conditions: HCT-116, 48 h

Row | Structure (SMILES) | IC50
64 | O=C(/C=C/c1ccc2c(c1)B(O)OC2)c1cccc(F)c1 | 6.7 µM
65 | Cc1cccc(C(=O)/C=C/c2ccc3c(c2)B(O)OC3)c1 | 6.7 µM
66 | Cc1ccc(C(=O)/C=C/c2ccc3c(c2)B(O)OC3)cc1C | 6.1 µM
67 | O=C(/C=C/c1ccc2c(c1)B(O)OC2)c1ccc(Cl)c(Cl)c1 | 3.2 µM
68 | O=C(/C=C/c1ccc2c(c1)B(O)OC2)c1ccc(O)c(O)c1 | > 100 µM
69 | COc1ccccc1C(=O)/C=C/c1ccc2c(c1)B(O)OC2 | 5 µM
70 | COc1cccc(C(=O)/C=C/c2ccc3c(c2)B(O)OC3)c1 | 5 µM
71 | COCOc1ccccc1C(=O)/C=C/c1ccc2c(c1)B(O)OC2 | 10.2 µM
72 | COCOc1cccc(C(=O)/C=C/c2ccc3c(c2)B(O)OC3)c1 | 13.3 µM
73 | Nc1cccc(C(=O)/C=C/c2ccc3c(c2)B(O)OC3)c1 | 4.5 µM
74 | O=C(/C=C/c1ccc2c(c1)B(O)OC2)c1ccccc1O | 77.9 µM
75 | O=C(/C=C/c1ccc2c(c1)B(O)OC2)c1cccc(O)c1 | 6.5 µM
76 | COc1ccc(C(=O)/C=C/c2ccc3c(c2)B(O)OC3)cc1OC | 12.2 µM
77 | COc1ccc(C(=O)/C=C/c2ccc3c(c2)B(O)OC3)c(OC)c1 | 16.2 µM
78 | COc1cc(C(=O)/C=C/c2ccc3c(c2)B(O)OC3)cc(OC)c1OC | 7.9 µM
79 | O=C(/C=C/c1ccc2c(c1)B(O)OC2)c1ccc2c(c1)OCCO2 | 10.3 µM
80 | COc1cc(C(=O)/C=C/c2ccc3c(c2)B(O)OC3)ccc1[N+](=O)[O-] | 4.1 µM
81 | COc1cc(C(=O)/C=C/c2ccc3c(c2)B(O)OC3)ccc1N | 27.9 µM
82 | O=C(O)c1ccc(C(=O)/C=C/c2ccc3c(c2)B(O)OC3)cc1 | > 100 µM
83 | O=C(/C=C/c1ccc2c(c1)B(O)OC2)c1cccnc1 | 20.5 µM
84 | COc1cccc2c1C(=O)c1c(O)c3c(c(O)c1C2=O)C[C@@](O)(C(=O)CO)C[C@@H]3O[C@H]1C[C@H](N)[C@H](O)[C@H](C)O1 [DOXORUBICIN] | 0.31 µM

Assay: Cytotoxicity against human MDA-MB-231 cells assessed as reduction in cell viability after 48 hrs by MTT assay
Assay type: functional, cell-based
Conditions: MDA-MB-231, 48 h

Row | Structure (SMILES) | IC50
85 | O=C(/C=C/c1ccc2c(c1)B(O)OC2)c1cccc(F)c1 | 3 µM
86 | Cc1cccc(C(=O)/C=C/c2ccc3c(c2)B(O)OC3)c1 | 4.5 µM
87 | Cc1ccc(C(=O)/C=C/c2ccc3c(c2)B(O)OC3)cc1C | 5.3 µM
88 | O=C(/C=C/c1ccc2c(c1)B(O)OC2)c1ccc(Cl)c(Cl)c1 | 3.4 µM
89 | O=C(/C=C/c1ccc2c(c1)B(O)OC2)c1ccc(O)c(O)c1 | 67.6 µM
90 | COc1ccccc1C(=O)/C=C/c1ccc2c(c1)B(O)OC2 | 3.1 µM
91 | COc1cccc(C(=O)/C=C/c2ccc3c(c2)B(O)OC3)c1 | 2.1 µM
92 | COCOc1ccccc1C(=O)/C=C/c1ccc2c(c1)B(O)OC2 | 10.2 µM
93 | COCOc1cccc(C(=O)/C=C/c2ccc3c(c2)B(O)OC3)c1 | 4.5 µM
94 | Nc1cccc(C(=O)/C=C/c2ccc3c(c2)B(O)OC3)c1 | 3.2 µM
95 | O=C(/C=C/c1ccc2c(c1)B(O)OC2)c1ccccc1O | 16.9 µM
96 | O=C(/C=C/c1ccc2c(c1)B(O)OC2)c1cccc(O)c1 | 2.7 µM
97 | COc1ccc(C(=O)/C=C/c2ccc3c(c2)B(O)OC3)cc1OC | 13.2 µM
98 | COc1ccc(C(=O)/C=C/c2ccc3c(c2)B(O)OC3)c(OC)c1 | 11.2 µM
99 | COc1cc(C(=O)/C=C/c2ccc3c(c2)B(O)OC3)cc(OC)c1OC | 10.6 µM
100 | O=C(/C=C/c1ccc2c(c1)B(O)OC2)c1ccc2c(c1)OCCO2 | 7.9 µM
101 | COc1cc(C(=O)/C=C/c2ccc3c(c2)B(O)OC3)ccc1[N+](=O)[O-] | 11.4 µM
102 | COc1cc(C(=O)/C=C/c2ccc3c(c2)B(O)OC3)ccc1N | 24.3 µM
103 | O=C(O)c1ccc(C(=O)/C=C/c2ccc3c(c2)B(O)OC3)cc1 | > 100 µM
104 | O=C(/C=C/c1ccc2c(c1)B(O)OC2)c1cccnc1 | 11.4 µM
